Assay results published in ChEMBL document CHEMBL3045382, “Synthesis of a ligandquencher conjugate for the ligand binding study of the aryl hydrocarbon receptor using a FRET assay” (Med Chem Res, 2012).

Tests used:
[1] = target: T1, Aryl hydrocarbon receptor (Homo sapiens, UniProt P35869); test: Binding affinity to full length N-terminal GFP-fused Homo sapiens (human) aryl hydrocarbon receptor ligand binding domain (848 amino acid residues) expressed in baculovirus infected Sf9 cells assessed as fluorescence quenching at 10 uM after 10 min by fluorescence microscopic analysis; settings: sf9, 10 min
T1 sequence (P35869 whole entry): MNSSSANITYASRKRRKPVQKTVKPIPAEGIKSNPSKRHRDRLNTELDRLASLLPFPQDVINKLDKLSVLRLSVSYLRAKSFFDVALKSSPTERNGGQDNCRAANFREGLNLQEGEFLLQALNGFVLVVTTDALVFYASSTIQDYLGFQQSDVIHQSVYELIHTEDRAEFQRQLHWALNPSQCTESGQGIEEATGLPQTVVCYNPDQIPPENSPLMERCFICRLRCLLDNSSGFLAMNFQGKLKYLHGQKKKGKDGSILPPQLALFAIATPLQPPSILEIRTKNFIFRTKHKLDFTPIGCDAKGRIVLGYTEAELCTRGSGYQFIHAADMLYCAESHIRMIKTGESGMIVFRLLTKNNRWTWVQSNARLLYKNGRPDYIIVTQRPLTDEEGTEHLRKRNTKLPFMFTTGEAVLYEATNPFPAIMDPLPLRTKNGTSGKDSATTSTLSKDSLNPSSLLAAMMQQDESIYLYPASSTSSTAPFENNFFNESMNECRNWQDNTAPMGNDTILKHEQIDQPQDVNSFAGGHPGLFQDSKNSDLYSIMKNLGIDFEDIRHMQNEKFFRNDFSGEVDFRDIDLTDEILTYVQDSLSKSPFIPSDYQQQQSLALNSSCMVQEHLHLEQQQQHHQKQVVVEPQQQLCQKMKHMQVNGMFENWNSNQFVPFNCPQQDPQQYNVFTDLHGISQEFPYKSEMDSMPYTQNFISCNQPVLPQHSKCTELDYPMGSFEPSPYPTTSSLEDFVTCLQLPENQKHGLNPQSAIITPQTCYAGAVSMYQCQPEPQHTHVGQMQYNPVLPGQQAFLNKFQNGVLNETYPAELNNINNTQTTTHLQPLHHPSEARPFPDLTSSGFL

[2] = target: T1, Aryl hydrocarbon receptor; test: Binding affinity to full length N-terminal GFP-fused Homo sapiens (human) aryl hydrocarbon receptor ligand binding domain (848 amino acid residues) expressed in baculovirus infected Sf9 cells assessed as fluorescence quenching at 10 uM after 5 min by fluorescence microscopic analysis; settings: sf9, 5 min
[3] = target: T1, Aryl hydrocarbon receptor; test: Competitive binding affinity to aryl hydrocarbon receptor in Homo sapiens (human) Hep3B cells assessed as supression of betaNF-mediated DRE-driven luciferase expression at 10 uM after 6 hr by Western blot analysis relative to control; assay type: cell-based; settings: hep 3b2, 6 h
[4] = target: T1, Aryl hydrocarbon receptor; test: Binding affinity to full length N-terminal GFP-fused Homo sapiens (human) aryl hydrocarbon receptor ligand binding domain (848 amino acid residues) expressed in baculovirus infected Sf9 cells assessed as fluorescence quenching at 10 uM up to 30 min by fluorescence microscopic analysis; settings: sf9, 0.5 h
[5] = Cytotoxicity against rat H4G1.1c3 cells at 10 to 50 uM after 24 hr; assay type: cell-based
[6] = target: T2, Aryl hydrocarbon receptor (Rattus norvegicus, UniProt P41738); test: Partial agonist activity at DRE-driven GFP-fused AhR ligand binding domain in rat H4G1.1c3 cells assessed as induction of DRE-driven GFP expression at 50 uM after 48 hr by fluorescence assay; assay type: cell-based
T2 sequence (P41738 whole entry): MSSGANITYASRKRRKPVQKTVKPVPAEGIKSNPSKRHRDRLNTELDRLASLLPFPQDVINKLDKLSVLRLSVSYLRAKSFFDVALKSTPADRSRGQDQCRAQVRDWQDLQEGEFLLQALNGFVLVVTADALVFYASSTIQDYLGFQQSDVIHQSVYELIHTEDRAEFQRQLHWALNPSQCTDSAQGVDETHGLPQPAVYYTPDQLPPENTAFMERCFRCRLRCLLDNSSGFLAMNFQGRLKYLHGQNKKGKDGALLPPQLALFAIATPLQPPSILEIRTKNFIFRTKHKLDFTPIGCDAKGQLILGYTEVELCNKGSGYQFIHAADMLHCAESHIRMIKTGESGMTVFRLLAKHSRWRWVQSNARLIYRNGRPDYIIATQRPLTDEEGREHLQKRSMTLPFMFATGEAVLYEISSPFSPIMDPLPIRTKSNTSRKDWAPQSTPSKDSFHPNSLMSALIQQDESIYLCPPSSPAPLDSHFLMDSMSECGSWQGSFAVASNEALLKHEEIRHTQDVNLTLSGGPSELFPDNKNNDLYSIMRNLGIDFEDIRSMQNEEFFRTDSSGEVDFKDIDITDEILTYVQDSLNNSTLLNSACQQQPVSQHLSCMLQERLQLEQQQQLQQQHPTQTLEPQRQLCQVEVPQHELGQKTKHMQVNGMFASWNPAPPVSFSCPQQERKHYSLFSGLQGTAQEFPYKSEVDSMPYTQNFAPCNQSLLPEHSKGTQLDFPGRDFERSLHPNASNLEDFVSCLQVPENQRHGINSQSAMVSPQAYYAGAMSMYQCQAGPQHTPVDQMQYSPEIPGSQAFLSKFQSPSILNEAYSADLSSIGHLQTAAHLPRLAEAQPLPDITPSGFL

[7] = target: T1, Aryl hydrocarbon receptor; test: Binding affinity to aryl hydrocarbon receptor in Homo sapiens (human) Hep3B cells assessed as upregulation of DRE-driven luciferase expression at 10 uM after 6 hr by Western blot analysis relative to control; assay type: cell-based, Hep 3B2; settings: Hep3B cells with DRE-driven luciferase reporter, read-out: FC
[8] = target: T2, Aryl hydrocarbon receptor; test: Agonist activity at DRE-driven GFP-fused AhR ligand binding domain in rat H4G1.1c3 cells assessed as induction of DRE-driven GFP expression at 10 uM after 48 hr by fluorescence assay; assay type: cell-based
[9] = target: T1, Aryl hydrocarbon receptor; test: Binding affinity to aryl hydrocarbon receptor in Homo sapiens (human) Hep3B cells assessed as upregulation of DRE-driven luciferase expression at 10 uM after 6 hr by Western blot analysis; assay type: cell-based; settings: hep 3b2, 6 h
[10] = target: T1, Aryl hydrocarbon receptor; test: Competitive binding affinity to aryl hydrocarbon receptor in Homo sapiens (human) Hep3B cells assessed as effect on betaNF-mediated DRE-driven luciferase expression at 10 uM after 6 hr by Western blot analysis relative to control; assay type: cell-based; settings: hep 3b2, 6 h
[11] = target: T1, Aryl hydrocarbon receptor; test: (§1) Competitive binding affinity to full length N-terminal GFP-fused Homo sapiens (human) aryl hydrocarbon receptor ligand binding domain (848 amino acid residues) expressed in baculovirus infected Sf9 cells assessed as reversal of betaNFQ-mediated fluorescence quenching at 5 uM measured at 5 min by fluorescence microscopic analysis; settings: sf9, 5 min
[12] = target: T1, Aryl hydrocarbon receptor; test: as §1, with “4-((4-(dimethylamino)phenyl)diazenyl)-N-(2-(2-(2-(2-hydroxyethoxy)ethoxy)ethoxy)ethyl)benzamide4-((4-(dimethylamino)phenyl)diazenyl)-N-(2-(2-(2-(2-hydroxyethoxy)ethoxy)ethoxy)ethyl)benzamide-mediated” for “betaNFQ-mediated”; settings: sf9, 5 min

Compound | Activity [1] | Activity [2] | Activity [6] | fold induction at 6 h, 10 µM [7] | Activity [5] | further results
CN(C)c1ccc(/N=N/c2ccc(C(=O)NCCOCCOCCOCCOCCOCCOCCOCCOCc3ccc(-c4cc(=O)c5c(ccc6ccccc65)o4)cc3)cc2)cc1 | – | – | – | – | Toxic | –
CN(C)c1ccc(/N=N/c2ccc(C(=O)NCCOCCOCCOCCO)cc2)cc1 | 16% | 13% | Not Active | – | – | Activity [9]: Not Active; Activity [10]: Not Active
Cc1ccc2cc3c(ccc4ccccc43)c3c2c1CC3 [3-METHYLCHOLANTHRENE] | – | – | – | – | – | Activity [11]: Active; Activity [12]: Not Active

The next lines start with results.

Activity [1] | Activity [2] | Activity [6] | fold induction at 6 h, 10 µM [7] | Compound | Activity [5] | further results
24% | 18% | Active | 14 | CN(C)c1ccc(/N=N/c2ccc(C(=O)NCCOCCOCCOCCOCc3ccc(-c4cc(=O)c5c(ccc6ccccc65)o4)cc3)cc2)cc1 | Non-toxic | fold change (FC) [3]: 23; Activity [4]: 29%
– | – | – | 75 | O=c1cc(-c2ccccc2)oc2ccc3ccccc3c12 [BETA-NAPHTHOFLAVONE] | – | Activity [8]: Active
